Several values for one entry are separate records, joined by “and”; a condition that tells them apart may be missing. Equal values may be shown once.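 Results reflect a 48-hour exposure of cells in 96-well plates to compound at five concentrations. Abbreviation: GI50, concentration required for 50% inhibition of growth. TGI is the concentration that stops growth completely.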

Some test systems named below: HS 578T breast; PC-3 prostate; SK-MEL-5 melanoma; SK-MEL-2 melanoma; HCC-2998 colon; HL-60(TB) leukemia; HCT-15 colon; SF-268 CNS; OVCAR-3 ovarian; A549 NSCLC.
Holding throughout (assay): inhibition of tumour cell growth, NCI panel, 48 h

In the case of `C=C(C)C1CCC2(C(=O)O)CCC3(C)C(CCC4C5(C)CCC(OC(=O)NCc6ccccc6)C(C)(C)C5CCC43C)C12` (centres undefined), the GI50 with HS 578T breast was 3.62 µM; with PC-3 prostate it was 1.2 µM; in the experiment with SK-MEL-5 melanoma, 4.82 µM; in the experiment on SK-MEL-2 melanoma, 5.46 µM; in the experiment on HCC-2998 colon, 2.8 µM; with HL-60(TB) leukemia, 2.39 µM. Besides, the GI50 with HCT-15 colon was 3.74 µM; in the experiment with SF-268 CNS, 4.84 µM; in the experiment on OVCAR-3 ovarian it was 2.04 µM; with A549 NSCLC, 0.961 µM. Besides, the TGI with HS 578T breast is over 100 µM; in the experiment with PC-3 prostate, 95.7 µM; with SK-MEL-5 melanoma, over 100 µM; in the experiment with SK-MEL-2 melanoma it was over 100 µM; in the experiment on HCC-2998 colon, over 100 µM; in the experiment with HL-60(TB) leukemia it was 28.1 µM. The TGI is over 100 µM with HCT-15 colon, over 100 µM in the experiment on SF-268 CNS, 13.9 µM in the experiment with OVCAR-3 ovarian and over 100 µM with A549 NSCLC.

For `CO[C@H]1C=C[C@@]23c4cc5c(cc4CO[C@]2(O)CN(C)[C@H]3C1)OCO5`, the TGI with HS 578T breast, in the experiment on PC-3 prostate, in the experiment on SK-MEL-5 melanoma, with SK-MEL-2 melanoma, in the experiment on HCC-2998 colon and in the experiment on HL-60(TB) leukemia was over 100 µM in each case. In addition, the TGI with HCT-15 colon, in the experiment on SF-268 CNS, with OVCAR-3 ovarian and with A549 NSCLC was over 100 µM throughout.

For `O=C(O)[C@@H]1CCCCN1Cc1cc2cc3c(cc2c2cc(OCc4ccccc4)ccc12)OCO3`, the GI50 in the experiment with HS 578T breast is 2.29 µM; in the experiment with PC-3 prostate, 16.4 µM; in the experiment with SK-MEL-5 melanoma, 1.62 µM; with SK-MEL-2 melanoma, 15.6 µM; in the experiment with HCC-2998 colon, 19.3 µM; in the experiment on HL-60(TB) leukemia, over 100 µM. Moreover, the GI50 is 3.27 µM with HCT-15 colon, 2.98 µM with SF-268 CNS, 6.79 µM in the experiment on OVCAR-3 ovarian and 3.74 µM with A549 NSCLC. For the same molecule, the TGI is 6.94 µM in the experiment on HS 578T breast; 38.3 µM in the experiment on PC-3 prostate; 3.61 µM with SK-MEL-5 melanoma; 37.4 µM in the experiment with SK-MEL-2 melanoma; 33.6 µM in the experiment on HCC-2998 colon; over 100 µM in the experiment with HL-60(TB) leukemia. Besides, the TGI with HCT-15 colon was found to be 13.7 µM; with SF-268 CNS it was 21.2 µM; with OVCAR-3 ovarian, 36.2 µM; in the experiment with A549 NSCLC, 15.1 µM.

Regarding `CCCCCN(CCCCC)CC(O)c1ccc(Cl)c2ccccc12` (centres undefined), the GI50 in the experiment with HS 578T breast is 10.8 µM; with PC-3 prostate it was 12.3 µM; in the experiment on SK-MEL-5 melanoma, 8.39 µM; with SK-MEL-2 melanoma, 17.4 µM; with HCC-2998 colon, 3.34 µM; with HL-60(TB) leukemia, 5.5 µM. Moreover, the GI50 in the experiment on HCT-15 colon was 6.98 µM; with SF-268 CNS, 13.5 µM; with OVCAR-3 ovarian, 12.4 µM; with A549 NSCLC, 14.2 µM. Moreover, the TGI in the experiment with HS 578T breast came to 33.9 µM; in the experiment on PC-3 prostate, 31.5 µM; in the experiment on SK-MEL-5 melanoma it was 20.8 µM; in the experiment with SK-MEL-2 melanoma it was 38.2 µM; in the experiment with HCC-2998 colon, 9.72 µM; in the experiment on HL-60(TB) leukemia, 20.9 µM. Moreover, the TGI came out at 22.1 µM with HCT-15 colon, 30.1 µM with SF-268 CNS, 26.5 µM in the experiment with OVCAR-3 ovarian and 34 µM in the experiment on A549 NSCLC.

With `O=C1OC(c2ccco2)=N/C1=C\c1cccc([N+](=O)[O-])c1`, the TGI in the experiment with HS 578T breast, with PC-3 prostate, with SK-MEL-5 melanoma, with SK-MEL-2 melanoma, in the experiment with HCC-2998 colon and in the experiment with HL-60(TB) leukemia was over 100 µM throughout. For the same molecule, the TGI with HCT-15 colon, with SF-268 CNS, in the experiment with OVCAR-3 ovarian and in the experiment with A549 NSCLC was over 100 µM each time.

For `COc1cc2c(c(OC)c1OC)C(=O)[C@@H]1c3ccc([N+](=O)[O-])cc3C(=O)N(CCCBr)[C@H]21`, the GI50 with HS 578T breast is 5.71 µM; with PC-3 prostate, 13.1 µM; in the experiment with SK-MEL-5 melanoma it was 11 µM; with SK-MEL-2 melanoma, 19.7 µM; with HCC-2998 colon, 1.17 µM; in the experiment on HL-60(TB) leukemia, 64.2 µM. The GI50 is 20.3 µM in the experiment with HCT-15 colon, 8.6 µM with SF-268 CNS, 2.02 µM in the experiment on OVCAR-3 ovarian and 12.3 µM in the experiment with A549 NSCLC. In addition, the TGI in the experiment on HS 578T breast is 35.5 µM; in the experiment on PC-3 prostate, 55.6 µM; in the experiment on SK-MEL-5 melanoma it was 27.5 µM; in the experiment with SK-MEL-2 melanoma, 59.8 µM; in the experiment on HCC-2998 colon, 7.51 µM; with HL-60(TB) leukemia, over 100 µM. Further, the TGI was over 100 µM with HCT-15 colon, 41.6 µM in the experiment with SF-268 CNS, 12.4 µM in the experiment with OVCAR-3 ovarian and 45.5 µM in the experiment with A549 NSCLC.

`Cc1ccc2c(c1)CN(C(=O)CCC(=O)OCc1ccccc1)c1ccc(C)cc1CN2C(=O)CCC(=O)OCc1ccccc1`: the TGI in the experiment on HS 578T breast, in the experiment with PC-3 prostate, in the experiment with SK-MEL-5 melanoma, in the experiment on SK-MEL-2 melanoma, with HCC-2998 colon and in the experiment on HL-60(TB) leukemia was over 100 µM in each case. The TGI in the experiment with HCT-15 colon, in the experiment on SF-268 CNS, in the experiment on OVCAR-3 ovarian and in the experiment on A549 NSCLC was over 100 µM each time.

In the case of `O=C(/C=C\n1cnc(-c2cc(C(F)(F)F)cc(C(F)(F)F)c2)n1)NNc1cnccn1`, the GI50 in the experiment on HS 578T breast was 0.231 µM; with PC-3 prostate, 0.128 µM; in the experiment on SK-MEL-5 melanoma, 0.151 µM; with SK-MEL-2 melanoma, 0.0729 µM; in the experiment on HCC-2998 colon it was 0.112 µM; in the experiment with HL-60(TB) leukemia, 0.0467 µM. Moreover, the GI50 with HCT-15 colon was 0.098 µM; in the experiment on SF-268 CNS, 0.0577 µM; in the experiment on OVCAR-3 ovarian it was 0.0574 µM; in the experiment with A549 NSCLC, 0.0785 µM. For the same molecule, the TGI was found to be 25.7 µM with HS 578T breast; 15.7 µM in the experiment on PC-3 prostate; 2.22 µM with SK-MEL-5 melanoma; 2.84 µM in the experiment with SK-MEL-2 melanoma; 1.93 µM with HCC-2998 colon; 13.4 µM in the experiment on HCT-15 colon. The TGI with SF-268 CNS turned out to be 10.6 µM; in the experiment with OVCAR-3 ovarian, 4.03 µM; with A549 NSCLC, 19 µM.

For the molecule `CON(C)C(=O)N1N=C(c2cc(F)ccc2F)SC1(CCCN)c1ccccc1` (centres undefined), the GI50 in the experiment on HS 578T breast was 0.0555 µM and < 0.01 µM; in the experiment with PC-3 prostate, 0.0179 µM and < 0.01 µM; with SK-MEL-5 melanoma it was under 0.01 µM; with SK-MEL-2 melanoma, under 0.01 µM; in the experiment on HCC-2998 colon, under 0.01 µM; in the experiment on HL-60(TB) leukemia, 0.0184 µM and < 0.01 µM. In addition, the GI50 with HCT-15 colon is 0.0485 µM and < 0.01 µM; with SF-268 CNS, 0.0217 µM and < 0.01 µM; in the experiment on OVCAR-3 ovarian, 0.0298 µM and < 0.01 µM; in the experiment on A549 NSCLC, 0.024 µM and < 0.01 µM. In addition, the TGI in the experiment with HS 578T breast is 17.4 µM and 21.8 µM; with PC-3 prostate, 15 µM and 14.2 µM; in the experiment on SK-MEL-5 melanoma it was 12.2 µM and 12.6 µM; in the experiment on SK-MEL-2 melanoma, 0.561 µM; in the experiment with HCC-2998 colon, 4.34 µM and 4.41 µM; in the experiment with HL-60(TB) leukemia, 5.38 µM and 2.03 µM. In addition, the TGI was 15.9 µM and 17.6 µM with HCT-15 colon; 17.3 µM and 16 µM in the experiment with SF-268 CNS; 12.4 µM and 12.2 µM in the experiment with OVCAR-3 ovarian; 17.1 µM and 18.2 µM in the experiment on A549 NSCLC.
